The subject of experiment [1] is proteasome of HeLa Ub^G76V-GFP cells. The experiment is described as follows: Cell-based proteasome inhibition assay (Ub-GFP accumulation). The following applies: 24 h. On the procedure: It was shown that b-AP15 at 50 μM inhibited the deubiquitination by the 19S regulatory particle, but not the 20S proteasome in in vitro enzymatic assays. […] HeLa Ub^G76V-GFP cells express ubiquitin-green fluorescent protein (Ub-GFP), which is efficiently degraded by the proteasome. HeLa Ub^G76V-GFP cells accumulate Ub-GFP in the presence of proteasome inhibitors. […] Some of the HeLa Ub^G76V-GFP cells turned green in the presence of b-AP15 at a concentration as low as 0.32 μM (Figure 1b). […] Ub-YFP was accumulated in the MelJuSo Ub-YFP cells at a b-AP15 concentration as low as 0.7 μM [12].
Figure 1 b-AP15 inhibited the proteasome of HeLa ubiquitin-green fluorescent protein (Ub^G76V-GFP) cells. HeLa Ub^G76V-GFP cells were treated with b-AP15 at 0.95 μM (a,d); 0.32 μM (b,e), or no b-AP15 (c,f) for 24 h, where (a), (b), and (c) are fluorescence microscopic images; (d), (e), and (f) are regular phase contrast images of the cells.
HeLa Ub^G76V-GFP cells (kindly provided by Nico P. Dantuma, Karolinska Institutet, Stockholm, Sweden) were cultured in DMEM medium supplemented with 10% fetal calf serum, 100 units/mL of penicillin, and 100 µg/mL of streptomycin. […] The green fluorescence emitted by the treated HeLa Ub^G76V-GFP cells was then observed and documented with a Nikon fluorescent microscopic system.

The target of experiment [2] is T1, human 19S regulatory particles (Homo sapiens, UniProt P54578+Q9Y5K5).
T1 construct: purchased Boston Biochem
Description: 19S regulatory particle de-ubiquitinase assay (ub-AMC). In kind it is biochemical. The following applies: 19S 2.9 nM; ub-AMC 1 μM; read-out: IC50, deubiquitinase activities of the 19S regulatory particles. On the procedure: Figure 2 (a) b-AP15 inhibited the 19S regulatory particles. The activity of human 19S regulatory particles (Boston Biochem) was determined in the presence of the fluorogenic substrate ub-AMC and various concentrations of b-AP15 as indicated using a reported assay condition. RFU denotes the relative fluorescence units of the reactions; (b) Inhibitory effect of b-AP15 on the chymotrypsin-like activity of the 20S proteasome. BG in the figure denotes background.
The de-ubiquitinase activities of the human 19S regulatory particles (proteasome) (Boston Biochem, Boston, MA, USA) were determined in the presence of the fluorogenic substrate ub-AMC (Boston Biochem) and various concentrations of b-AP15 using the reported assay condition. The reaction buffer used contained 25 mM HEPES, 50 mM NaCl, 10 mM MgCl2, 2 mM ATP, and 1 mM DDT. The human 19S regulatory particles and the substrate ub-AMC were used at a final concentration of 2.9 nM, and 1 μM, respectively. The proteolysis reaction rate was monitored using a BioTek fluorometer (Winooski, VT, USA).

Experiment [3] has as its target T2, human 20S proteasome, caspase-like activity (Homo sapiens, UniProt P28072).
T2 construct: purchased Calbiochem
The experiment is described as follows: 20S proteasome assay, caspase-like activity ((Z)-LLEbNA). In kind it is biochemical. On the procedure: (§1) Proteasome assay kits were purchased from Calbiochem, San Diego, CA. The effect of the proteasome inhibitors on the 20S proteasome activities was assayed following the protocols provided by the manufacturer. The major components of the assay mixture are the human 20S proteasome, fluorogenic peptide substrates and a proteasome activator. […] The concentrations of the proteasome activators used, PA28, PALAME, and SDS were 2 μg/mL, 19 μM, and 0.03% (V/V), respectively.
(§2) The trypsin-like and caspase-like activities of the 20S proteasome were determined using the fluorogenic substrates Bz-VGR-AMC (20 μM) and (Z)-LLEbNA (20 μM), respectively. Fluorescence generated from the proteolytic reaction in the presence of various concentrations of the inhibitors was measured using a BioTek fluorometer. […] The value of IC50 is expressed as mean ± standard deviation from three independent assays using CalcuSyn (Biosoft, Cambridge, UK).

The target in experiment [4] is T3, human 20S proteasome, trypsin-like activity (Homo sapiens, UniProt Q99436).
T3 construct: purchased Calbiochem
Description: 20S proteasome assay, trypsin-like activity (Bz-VGR-AMC). The following applies: activator PA28; Bz-VGR-AMC 20 μM; read-out: IC50, trypsin-like activity of PA28-activated 20S proteasome. It counts as biochemical. On the procedure:
as §1, §2

Experiment [5] has as its target T4, 20S proteasome, chymotrypsin-like activity (Homo sapiens, UniProt P28074). Description: HPLC analysis of the substrates and products of the 20S proteasome. It counts as biochemical. The note with it: 0, 2.4, 9.6, 38 μM; PA28 11 μg/mL; 6 h, room temperature. From the text:
b-AP15 is highly chromogenic with a conjugated π-bonding system that could potentially be quenching the emitted fluorescence from proteasome cleavage of the substrate. To eliminate the possible effect of quenching by b-AP15, we used HPLC to analyze the substrate and cleaved products, AMC (P1) and Suc-LLVY (P2), after the enzyme reactions. The ratio of P/S was used to express the relative amount of reaction product formation under the assay conditions, where P represents the products and S represents the substrate Suc-LLVY-AMC (S). […]
Figure 3 Inhibition of the chymotrypsin-like activity of the 20S proteasome. The reaction products of the 20S proteasome, AMC (P1), Suc-LLVY (P2), and substrate Suc-LLVY-AMC (S) were analyzed by HPLC. P1/S and P2/S are the ratios of the reaction products and the substrate calculated from the area under the curve of the HPLC profiles.
b-AP15 at various concentrations (0, 2.4, 9.6, and 38 μM) was incubated with the 20S proteasome (4.3 nM), substrate (Suc-LLVY-AMC, 0.2 mM), and PA28 (11 μg/mL) at room temperature for 6 h. […] The reaction products, AMC (P1), Suc-LLVY (P2), and substrate Suc-LLVY-AMC (S) in the filtrate were analyzed using reverse phase HPLC with a gradient of increasing acetonitrile/water ratio. […]

The test system of experiment [6] is MelJuSo Ub-YFP reporter cell line. Details: method as in PMID 22057347. The note with it: MelJuSo Ub-YFP cells; cited from earlier work.
Another experiment deals with 19S regulatory particle. Details: method as in PMID 22057347. The note with it: 50 μM; cited from earlier work.
For a further experiment, the system named is 20S proteasome. Details: method as in PMID 22057347. The note with it: 50 μM; SDS as activator; cited from earlier work.
A further experiment deals with multiple myeloma. Details: method as in PMID 24319254. The following applies: human xenograft mouse model; cited from earlier work. On the technique in general: In xenograft studies the graft and the host belong to different species.
Experiment [7] concerns the target T4, 20S proteasome, chymotrypsin-like activity. The experiment is described as follows: 20S proteasome assay, chymotrypsin-like activity (Suc-LLVY-AMC). In kind it is biochemical. Details: purchased Calbiochem. The following applies: for IC50: Suc-LLVY-AMC 20 μM, mean ± SD, three assays. On the procedure:
as §1, §2

This is an account of results in PMC4279163, “Inhibitory Effect of b-AP15 on the 20S Proteasome” (Biomolecules, 2014).

“And” between values parts separate entries of the source, which are not always exact repeats. Equal entries are not always repeated. Where two headings read alike, the source gives them in different places.

As for `C=CC(=O)N1C/C(=C\c2ccc([N+](=O)[O-])cc2)C(=O)/C(=C/c2ccc([N+](=O)[O-])cc2)C1` [b-AP15], the “Accumulation of Ub^G76V-GFP and/or GFP in cells” value in [1] (0.95 μM) is reported as “accumulation of Ub^G76V-GFP and/or GFP in majority of the cells”. In addition, the “Lowest concentration at which some cells turned green” value in experiment [1] (fluorescence microscopy) is 0.32 µM. In addition, the IC50 in experiment [2] is 15.2 µM; in experiment [3] (activator PA28, (Z)-LLEbNA 20 μM, read-out: IC50, caspase-like activity of PA28-activated 20S proteasome), over 48 µM; in [4] it was 40.6 ± 5.23 µM; in [7] (activator PA28 2 μg/mL, read-out: IC50, chymotrypsin-like activity of the 20S proteasome activated by PA28), 18.1 ± 3.22 µM; in experiment [7] (activator PALAME 19 μM, read-out: IC50, chymotrypsin-like activity of the 20S proteasome activated by PALAME) it was 26 µM and 26.3 µM; in experiment [7] (activator SDS 0.03%, read-out: IC50, chymotrypsin-like activity of the 20S proteasome activated by SDS) it was over 48 µM. In addition, the “Effect on the caspase-like activity” value in [3] (up to 48 μM, PA28-activated) is recorded as “did not significantly affect”. The “Formation of the two cleaved products AMC (P1) and Suc-LLVY (P2) by HPLC” value in [5] is given as “inhibited the formation of the two cleaved products in a dose dependent manner”. For the same compound, the “Lowest concentration at which Ub-YFP was accumulated” value in experiment [6] was 0.7 µM. The “Inhibition of deubiquitination by the 19S regulatory particle” value in the experiment on 19S regulatory particle was “inhibited”. For the same compound, the “Inhibition of the 20S proteasome” value with 20S proteasome is recorded as “did not inhibit”. Moreover, the Anti-multiple myeloma activity result in the experiment with multiple myeloma is listed as “anti-multiple myeloma activity”. In addition, in experiment [7] (48 μM, 0.03% SDS as activator, read-out: Inhibition of the chymotrypsin-like activity of the SDS-activated 20S proteasome), the inhibition at 48 µM is under 50%.

In general, IC50 refers to the concentration needed to halve the response being measured. The inhibition is the change of the read-out against control, counted positive when it falls.
